Measured values from patent publication US20240368096A1 (Enanta Pharmaceuticals, Inc., priority 2022, published 2024).

test system: HBV; experiment: HBV infection in HepG2-NTCP cells (HBeAg AlphaLISA in supernatants); assay type: cell-based; conditions: Hepatitis B virus, 192 h; HBV infection of HepG2-NTCP cells; HBeAg in supernatants at day 8 post infection; read-out: Cellular EC50
Procedure: HepG2-NTCP A3 cells were maintained in DMEM media supplemented with GlutaMAX™ 10% fetal bovine serum, 1% penicillin/streptomycin, and 5 μg/mL puromycin at 37° C. in a humidified atmosphere with 5% CO2 in a collagen-coated tissue culture flask.
HepG2-NTCP cells were seeded in 384 well plate containing 16,000 cells/well two days prior to the infection. On the day of infection, compounds were 3-fold serially diluted in DMSO and pre-incubated with HepG2-NTCP cells for two hours before purified HBV addition. HBV infection was carried out at 2000 GE/cell with 4% PEG, and the final concentration of DMSO is 0.5%. On day one post infection, HBV-containing media was aspirated, cells were washed once with PBS and then maintained in 2.5% DMSO containing media for the remainder of the assay.
Supernatants from infected HepG2-NTCP cells were collected at day 8 post infection, and the amount of viral antigen HBeAg was measured by HBeAg AlphaLISA detection kit (PerkinElmer) following the manufacturer's recommended protocol. Irrespective of readout, compound concentrations that reduce viral product accumulation in supernatants by […] relative to DMSO controls (EC50) are reported. EC50 ranges are as follows: A<0.1 μM; B 0.1-1 μM; C>1 μM.

Structure (SMILES) | EC50 [nM]
O=C(O)c1cc(-c2cc3c(cc2Cl)N(c2ccccc2)CC(C2CCCCC2)CS3(=O)=O)cc(F)c1F (racemic) [Example 606, Rac-5-(7-chloro-3-cyclohexyl-1,1-dioxido-5-phenyl-2,3,4,5-tetrahydrobenzo[b][1,4]thiazepin-8-yl)-2,3-difluorobenzoic acid] | < 100
CN1[C@H](C2CC=CCO2)CN(c2ccccc2)c2cc(Cl)c(-c3ccc(F)c(C(=O)O)c3)cc2S1(=O)=O (single isomer, unassigned) [Example 103] | 100 to 1000
CC1CN(c2ccccc2)c2cc(F)c(-c3ccc(F)c(C(=O)O)c3)cc2S(=O)(=O)N1C (stereo not drawn) [Example 1, 2-fluoro-5-(7-fluoro-2,3-dimethyl-1,1-dioxido-5-phenyl-2,3,4,5-tetrahydrobenzo[f][1,2,5]thiadiazepin-8-yl)benzoic acid] | > 1000
CN1[C@@H](Cc2ccc(Cl)cc2)CN(c2ccccc2)c2cc(F)c(-c3ccc(F)c(C(=O)O)c3)cc2S1(=O)=O [Example 2] | > 1000
O=C(O)c1cccc(-c2cc3c(cc2F)N(c2ccccc2)CC2c4ccccc4CN2S3(=O)=O)c1 (stereo not drawn) [Example 3] | > 1000
O=C(O)c1cc(-c2cc3c(cc2F)N(c2ccccc2)CC2c4ccccc4CN2S3(=O)=O)ccc1F (stereo not drawn) [Example 4] | 100 to 1000
O=C(O)c1cccc(-c2cc3c(cc2F)N(c2ccccc2)CC2CC4(CC4)CN2S3(=O)=O)c1 (stereo not drawn) [Example 5] | > 1000
O=C(O)c1cncc(-c2cc3c(cc2F)N(c2ccccc2)CC2CC4(CC4)CN2S3(=O)=O)c1 (stereo not drawn) [Example 6] | > 1000
O=C(O)c1cc(-c2cc3c(cc2F)N(c2ccccc2)CC2CC4(CC4)CN2S3(=O)=O)ccc1F (stereo not drawn) [Example 7] | 100 to 1000
Cn1nc(-c2cc3c(cc2F)N(c2ccccc2)CC2CC4(CC4)CN2S3(=O)=O)cc1C(=O)O (stereo not drawn) [Example 8] | > 1000
O=C(O)c1cccc(-c2cc3c(cc2F)N(c2ccccc2)C[C@H]2C[C@@H](C(F)(F)F)CN2S3(=O)=O)c1 [Example 9] | 100 to 1000
O=C(O)c1cc(-c2cc3c(cc2F)N(c2ccccc2)C[C@H]2C[C@@H](C(F)(F)F)CN2S3(=O)=O)ccc1F [Example 10] | > 1000
O=C(O)c1cccc(-c2cc3c(cc2F)N(c2ccccc2)C[C@@H]2C[C@H](C(F)(F)F)CN2S3(=O)=O)c1 [Example 11] | > 1000
CC1CN(c2ccccc2)c2cc(C#N)c(-c3cccc(C(=O)O)c3)cc2S(=O)(=O)N1C (stereo not drawn) [Example 12, 3-(7-cyano-2,3-dimethyl-1,1-dioxido-5-phenyl-2,3,4,5-tetrahydrobenzo[f][1,2,5]thiadiazepin-8-yl)benzoic acid] | > 1000
CN1[C@@H](Cc2ccc(Cl)cc2)CN(c2ccccc2)c2cc(C#N)c(-c3cccc(C(=O)O)c3)cc2S1(=O)=O [Example 13] | > 1000
CC(C)CC1CN(c2ccccc2)c2cc(C#N)c(-c3cccc(C(=O)O)c3)cc2S(=O)(=O)N1C (stereo not drawn) [Example 14] | 100 to 1000
COc1cc2c(cc1-c1cccc(C(=O)O)c1)S(=O)(=O)N(C)C(C)CN2c1ccccc1 (stereo not drawn) [Example 15, 3-(7-methoxy-2,3-dimethyl-1,1-dioxido-5-phenyl-2,3,4,5-tetrahydrobenzo[f][1,2,5]thiadiazepin-8-yl)benzoic acid] | > 1000
COc1cc2c(cc1-c1cccc(C(=O)O)c1)S(=O)(=O)N1Cc3ccccc3C1CN2c1ccccc1 (stereo not drawn) [Example 16] | 100 to 1000
COc1cc2c(cc1-c1cccc(C(=O)O)c1)S(=O)(=O)N(C)[C@@H](Cc1ccc(Cl)cc1)CN2c1ccccc1 [Example 17] | > 1000

Structure (SMILES) | EC50 [nM]
CSc1cc2c(cc1-c1cccc(C(=O)O)c1)S(=O)(=O)N1CC3(CC3)CC1CN2c1ccccc1 (stereo not drawn) [Example 18, 3-(8-(methylthio)-5,5-dioxido-10-phenyl-1,10,11,11a-tetrahydro-3H-spiro[benzo[f]pyrrolo[1,2-b][1,2,5]thiadiazepine-2,1′-cyclopropan]-7-yl)benzoic acid] | 100 to 1000
CSc1cc2c(cc1-c1cccc(C(=O)O)c1)S(=O)(=O)N1CC(C)(C)CC1CN2c1ccccc1 (stereo not drawn) [Example 19] | 100 to 1000
CSc1cc2c(cc1-c1ccc(F)c(C(=O)O)c1)S(=O)(=O)N1CC(C)(C)CC1CN2c1ccccc1 (stereo not drawn) [Example 20] | 100 to 1000
CSc1cc2c(cc1-c1cncc(C(=O)O)c1)S(=O)(=O)N1CC(C)(C)CC1CN2c1ccccc1 (stereo not drawn) [Example 21] | 100 to 1000
CSc1cc2c(cc1-c1cccc(C(=O)O)c1)S(=O)(=O)N1Cc3ccccc3C1CN2c1ccccc1 (stereo not drawn) [Example 22] | > 1000
CSc1cc2c(cc1-c1cccc(C(=O)O)c1)S(=O)(=O)N1C[C@H](C(F)(F)F)C[C@@H]1CN2c1ccccc1 [Example 23] | > 1000
CSc1cc2c(cc1-c1cccc(C(=O)O)c1)S(=O)(=O)N1C[C@@H](C(F)(F)F)C[C@H]1CN2c1ccccc1 [Example 24] | > 1000
CN1[C@H](C2CCCCC2)CN(c2ccccc2)c2cc(Cl)c(-c3ccc(Cl)c(C(=O)O)c3)cc2S1(=O)=O [Example 26] | < 100
CN1[C@H](C2CCC(F)(F)CC2)CN(c2ccccc2)c2cc(Cl)c(-c3ccc(F)c(C(=O)O)c3)cc2S1(=O)=O [Example 27] | 100 to 1000
CN1[C@H](C2CCC(F)(F)CC2)CN(c2ccccc2)c2cc(Cl)c(-c3ccc(Cl)c(C(=O)O)c3)cc2S1(=O)=O [Example 29] | 100 to 1000
CN1[C@H](C2CC(F)(F)C2)CN(c2ccccc2)c2cc(Cl)c(-c3ccc(F)c(C(=O)O)c3)cc2S1(=O)=O [Example 30] | 100 to 1000
CN1[C@H](C2CC(F)(F)C2)CN(c2ccccc2)c2cc(Cl)c(-c3cc(F)c(F)c(C(=O)O)c3)cc2S1(=O)=O [Example 31] | 100 to 1000
CN1[C@H](C2CC(F)(F)C2)CN(c2ccccc2)c2cc(Cl)c(-c3ccc(Cl)c(C(=O)O)c3)cc2S1(=O)=O [Example 32] | 100 to 1000
CC(C)CC1CN(c2ccccc2)c2cc(Cl)c(-c3cccc(C(=O)O)c3)cc2S(=O)(=O)N1C (stereo not drawn) [Example 33] | 100 to 1000
CC(C)CC1CN(c2ccccc2)c2cc(Cl)c(-c3ccc(F)c(C(=O)O)c3)cc2S(=O)(=O)N1C (stereo not drawn) [Example 34] | < 100
CC(C)CC1CN(c2ccccc2)c2cc(Cl)c(-c3cncc(C(=O)O)c3)cc2S(=O)(=O)N1C (stereo not drawn) [Example 35] | 100 to 1000
CC(C)CC1CN(c2ccccc2)c2cc(Cl)c(-c3cc(F)cc(C(=O)O)c3)cc2S(=O)(=O)N1C (stereo not drawn) [Example 36] | 100 to 1000
CC(C)CC1CN(c2ccccc2)c2cc(Cl)c(-c3cc(Cl)cc(C(=O)O)c3)cc2S(=O)(=O)N1C (stereo not drawn) [Example 37] | 100 to 1000
CC(C)CC1CN(c2ccccc2)c2cc(Cl)c(-c3ccc(Cl)c(C(=O)O)c3)cc2S(=O)(=O)N1C (stereo not drawn) [Example 38] | < 100

Structure (SMILES) | EC50 [nM]
CC(C)CC1CN(c2ccccc2)c2cc(Cl)c(-c3cc(C(=O)O)n(C)n3)cc2S(=O)(=O)N1C (stereo not drawn) [Example 39] | 100 to 1000
C=CC[C@H]1CN(c2ccccc2)c2cc(Cl)c(-c3cccc(C(=O)O)c3)cc2S(=O)(=O)N1C [Example 40] | > 1000
CN1[C@@H](CC2CC2)CN(c2ccccc2)c2cc(Cl)c(-c3cccc(C(=O)O)c3)cc2S1(=O)=O [Example 41] | > 1000
CN1[C@@H](CC2CC2)CN(c2ccccc2)c2cc(Cl)c(-c3ccc(F)c(C(=O)O)c3)cc2S1(=O)=O [Example 42] | > 1000
CN1[C@@H](CC2CCCCC2)CN(c2ccccc2)c2cc(Cl)c(-c3cccc(C(=O)O)c3)cc2S1(=O)=O [Example 43] | > 1000
CCC1CN(c2ccccc2)c2cc(Cl)c(-c3ccc(F)c(C(=O)O)c3)cc2S(=O)(=O)N1C (stereo not drawn) [Example 45] | > 1000
CCC1CN(c2ccccc2)c2cc(Cl)c(-c3ccc(Cl)c(C(=O)O)c3)cc2S(=O)(=O)N1C (stereo not drawn) [Example 46] | 100 to 1000
CCC[C@@H]1CN(c2ccccc2)c2cc(Cl)c(-c3ccc(F)c(C(=O)O)c3)cc2S(=O)(=O)N1C [Example 47] | 100 to 1000
CCC[C@@H]1CN(c2ccccc2)c2cc(Cl)c(-c3ccc(Cl)c(C(=O)O)c3)cc2S(=O)(=O)N1C [Example 48] | < 100
CN1[C@H](Cc2ccc(Cl)cc2)CN(c2ccccc2)c2cc(Cl)c(-c3ccc(F)c(C(=O)O)c3)cc2S1(=O)=O [Example 49] | > 1000
CN1[C@H](CC(C)(C)C)CN(c2ccccc2)c2cc(Cl)c(-c3ccc(F)c(C(=O)O)c3)cc2S1(=O)=O [Example 50] | 100 to 1000
CN1[C@H](CC(C)(C)C)CN(c2ccccc2)c2cc(Cl)c(-c3ccc(Cl)c(C(=O)O)c3)cc2S1(=O)=O [Example 51] | < 100
CN1[C@H](CC2CCCCC2)CN(c2ccccc2)c2cc(Cl)c(-c3ccc(F)c(C(=O)O)c3)cc2S1(=O)=O [Example 52] | 100 to 1000
CN1[C@H](CCc2ccccc2)CN(c2ccccc2)c2cc(Cl)c(-c3ccc(F)c(C(=O)O)c3)cc2S1(=O)=O [Example 53] | > 1000
CN1[C@H](c2ccccc2)CN(c2ccccc2)c2cc(Cl)c(-c3ccc(F)c(C(=O)O)c3)cc2S1(=O)=O [Example 54] | 100 to 1000
CN1[C@H](c2cccc(F)c2)CN(c2ccccc2)c2cc(Cl)c(-c3ccc(F)c(C(=O)O)c3)cc2S1(=O)=O [Example 55] | 100 to 1000
CN1[C@H](c2ccc(F)cc2)CN(c2ccccc2)c2cc(Cl)c(-c3ccc(F)c(C(=O)O)c3)cc2S1(=O)=O [Example 56] | 100 to 1000
O=C(O)c1cccc(-c2cc3c(cc2Cl)N(c2ccccc2)CC2CC4(CC4)CN2S3(=O)=O)c1 (stereo not drawn) [Example 57] | 100 to 1000
O=C(O)c1cc(-c2cc3c(cc2Cl)N(c2ccccc2)C[C@@H](C2CCCCC2)NS3(=O)=O)ccc1F [Example 58] | 100 to 1000
